Assay results from patent US20210290648A1, “Potentiation of B-Lactam Antibiotics and B-Lactam/B-Lactamase Inhibitor Combinations Against Multidrug and Extensively Drug-Resistant Pseudomonas Aeruginosa Using Non-Ribosomal Tobramycin-Cyclam Conjugates” (University of Manitoba, priority 2018, published 2021).

How the values were obtained:
MRSA ATCC 33592 = experiment: MIC, microbroth dilution; type: cell-based; conditions: standalone
Experimental: (§1) Antimicrobial Susceptibility Assay. The in vitro antimicrobial activity of all compounds/antibiotics against a panel of bacteria was evaluated by microbroth dilution method in accordance with the Clinical and Laboratory Standards Institute (CLSI) guidelines. Overnight grown bacterial cultures were diluted in saline to achieve a 0.5 McFarland turbidity, followed by 1:50 dilution in Mueller-Hinton broth (MHB) for inoculation to a final concentration of approximately 5×10^5CFU/mL. The antimicrobial agents were 2-fold serially diluted in MHB in a 96-well plate and incubated at 37° C. with equal volumes of inoculum for 18 h. The lowest concentration that prevented the visible growth of bacteria was defined as the MIC for each antimicrobial agent. The broth with or without bacterial cells was used as positive or negative control, respectively.

MSSE CANWARD-2008 81388 = experiment: MIC, microbroth dilution; type: cell-based; conditions: standalone
Experimental: as §1

PA 100036 = experiment: Checkerboard combination study / MIC; type: cell-based, Pseudomonas aeruginosa
PA 101243 = experiment: Checkerboard combination study / MIC; type: cell-based, Pseudomonas aeruginosa; conditions: PA 101243
MDR PA108590 = experiment: Time-kill assay, triple combination; type: cell-based, Pseudomonas aeruginosa
[1] = system: MDR PA108590-challenged larvae; experiment: Galleria mellonella infection model, efficacy; type: in vivo; conditions: ceftazidime+avibactam+compound 2, 1.56+1.56+3.12 mg/kg
Text: In vivo larvae-infection model.

PA108590 = experiment: MIC / triple combination susceptibility; type: cell-based, Pseudomonas aeruginosa; conditions: triple combination with avibactam and compound 2 (8 μM each); ceftazidime, aztreonam, meropenem
Text: The diazabicyclooctane β-lactamase inhibitor, avibactam, is able to inhibit a wide range of serine β-lactamases (class A, C, and D) but not metallo-β-lactamases (class B) (50, 51).^50,51 However, the high concentration of avibactam required to neutralize the effects of β-lactamase enzymes in these phenotypes is indicative of concomitant permeability barriers in the isolates, such as reduced porin uptake. […] The results of this study are shown in (FIG. 6). All isolates were resistant to all three β-lactam antibiotics used for the study. […] As expected, the study with meropenem was slightly different from others.
Antimicrobial Susceptibility Assay. The in vitro antimicrobial activity of all compounds/antibiotics against a panel of bacteria was evaluated by microbroth dilution method in accordance with the Clinical and Laboratory Standards Institute (CLSI) guidelines. […]
Checkerboard Assay. […] After incubation, the plates were read on EMax® Plus microplate reader (Molecular Devices, Sunnyvale, Calif., USA) at 590 nm. MIC was recorded as wells with the lowest concentration of drugs with no bacterial growth. The fractional inhibitory concentration (FIC) for each antibiotic was calculated by dividing the MIC of the antibiotic in the presence of adjuvant by the MIC of the antibiotic alone. […]

PAO200 = type: cell-based, Pseudomonas aeruginosa
Text: (§2) PAO200 is a tnexA-rnexB-oprM deletion strain while PAO750 lacks five important RND pumps (McxAB-OprM, MexCD-OprJ, MexEF-OprN, Mex JK, and MexXY) and the outer membrane protein OpmH (46, 47). Some of these pumps are homologues of broad substrate specificities that extrude different classes of antimicrobial agents and confer resistance on P. aeruginosa (48).
as §1
(§3) Checkerboard Assay. Combination studies with different antibiotics were performed in 96-well plates as previously described (22). Briefly, the antibiotic of interest was serially diluted in MHB along the abscissa while the adjuvant (newly synthesized conjugates) was serially diluted in MHB along the ordinate. This creates a 10×7 matrix wherein each well consists of a combination of different antibiotic and adjuvant concentrations. Overnight grown bacterial cultures were diluted in saline to achieve a 0.5 McFarland turbidity, followed by 1:50 dilution in Mueller-Hinton broth (MHB) for inoculation to a final concentration of approximately 5×10^5CFU/mL. Equal volume of this bacterial culture was then added to each well and incubated at 37° C. for 18 h. After incubation, the plates were read on EMax® Plus microplate reader (Molecular Devices, Sunnyvale, Calif., USA) at 590 nm. MIC was recorded as wells with the lowest concentration of drugs with no bacterial growth. The fractional inhibitory concentration (FIC) for each antibiotic was calculated by dividing the MIC of the antibiotic in the presence of adjuvant by the MIC of the antibiotic alone. Similarly, the FIC of adjuvant was calculated by dividing the MIC of the adjuvant in the presence of antibiotic by the MIC of the adjuvant alone. FIC index is the sum of both FICs. FIC indices of <0.5 were deemed synergistic; 0.5-4, no interaction; and >4, antagonistic.

PAO750 = type: cell-based, Pseudomonas aeruginosa
Text: as §2, §1, §3

MDR PA101885 = experiment: Time-kill assay; type: cell-based, Pseudomonas aeruginosa
Experimental: (§4) Time-kill curves typically reveal the kinetics of bacterial growth and death, with respect to time, at different antimicrobial concentrations. An antibiotic could either be bactericidal or bacteriostatic under specific growth conditions. Bactericidal activity is defined as a ≥3-log reduction in the total CFU/mL from the original inoculum over 24 hours while bacteriostatic activity is defined as maintenance of <3-log reduction in the total CFU/mL from the original inoculum (44). […] Growth curves were initially performed to ensure that strains will reach a stable early- to mid-log phase after 4 h of pre-incubation in antimicrobial-free LB medium.
(§5) Time-kill assay. Time-kill curve analyses were performed by culturing P. aeruginosa in LB medium, in the presence of antibiotics alone and in combination with test adjuvants. MICs of antibiotics and adjuvants were determined before the experiment following CLSI microbroth dilution guidelines. Growth curves were initially performed to confirm that all strains will reach a stable early- to mid-log phase after 4 h of pre-incubation in antimicrobial-free LB medium. A 0.5 McFarland inoculum of each strain was prepared in sterile 0.85% saline solution from an overnight grown culture. For each strain, 30 μl of the prepared inoculum was diluted to 3 ml of LB broth (containing different combinations of antimicrobial agents and adjuvants) and incubated at 37° C. shaking at 250 rpm. At specific time intervals (0, 1, 3, 6, 9, and 24 h), 100 μl was taken from each sample, serially diluted in sterile PBS, plated on LB agar plates, and incubated at 37° C. in a humid 5% CO2-enriched atmosphere. Bacteria colonies were counted after 20 h of incubation.

[2] = system: wild type P. aeruginosa PAO1; experiment: Time-kill assay; type: cell-based, Pseudomonas aeruginosa; conditions: WT PAO1
Experimental: as §4, §5

[3] = MIC of antibiotic combined with compound 2

Compound: 5-O-(Octylcyclam)-tobramycin.9TFA [Compound 2]
- MIC (MRSA ATCC 33592): 64 µg/mL
- MIC (MSSE CANWARD-2008 81388): 16 µg/mL
- MICCombination (2) (PA 100036; MIC of 2 combined with AZT): 8 µg/mL
- MICCombination (2) (PA 100036; MIC of 2 combined with CAZ): 8 µg/mL
- MICCombination (2) (PA 100036; MIC of 2 combined with CEF): 16 µg/mL
- MICCombination (2) (PA 100036; MIC of 2 combined with DOR): 16 µg/mL
- MICCombination (2) (PA 100036; MIC of 2 combined with MER): 2 µg/mL
- MICCombination (2) (PA 100036; MIC of 2 combined with PIP): 16 µg/mL
- FIC2 (PA 100036; with AZT): <0.0313
- FIC2 (PA 100036; with CAZ): <0.0313
- FIC2 (PA 100036; with CEF): <0.0625
- FIC2 (PA 100036; with DOR): <0.0625
- FIC2 (PA 100036; with MER): <0.0078
- FIC2 (PA 100036; with PIP): <0.0625
- MICCombination (2) (PA 101243; MIC of 2 combined with AZT): 2 µg/mL
- MICCombination (2) (PA 101243; MIC of 2 combined with CAZ): 1 µg/mL
- MICCombination (2) (PA 101243; MIC of 2 combined with CEF): 0.25 µg/mL
- MICCombination (2) (PA 101243; MIC of 2 combined with DOR): 0.25 µg/mL
- MICCombination (2) (PA 101243; MIC of 2 combined with MER): 0.5 µg/mL
- MICCombination (2) (PA 101243; MIC of 2 combined with PIP): 16 µg/mL
- FIC2 (PA 101243; with AZT): <0.0078
- FIC2 (PA 101243; with CAZ): <0.0039
- FIC2 (PA 101243; with CEF): <0.0010
- FIC2 (PA 101243; with DOR): <0.0010
- FIC2 (PA 101243; with MER): <0.0020
- FIC2 (PA 101243; with PIP): <0.0625
- bacterial counts lower than ceftazidime+avibactam (MDR PA108590; ceftazidime + avibactam + compound 2, after 3 h): > 2 Log
- time to sterilization of bacteria culture (MDR PA108590; triple combination ceftazidime + avibactam + compound 2, limit of detection 10 CFU/mL): ≤ 3 h
- reduction in total CFU/mL from original inoculum (MDR PA108590; triple combination ceftazidime + avibactam + compound 2, within 3 h): 6 Log
- survival of larvae ([1]; after 24 h): 100%
- survival of larvae ([1]; after 36 h): 95%
- potentiation of all three β-lactam antibiotics (PA108590): 128 fold

Compound: C[C@H]1[C@H](NC(=O)/C(=N\OC(C)(C)C(=O)O)c2csc(N)n2)C(=O)N1S(=O)(=O)O [Aztreonam]
- MICCombination (antibiotic) (PA 100036; [3]): 2 µg/mL
- FICI (PA 100036; antibiotic + compound 2): <0.16
- MICAntibiotic (PA 100036; antibiotic alone): 16 µg/mL
- MICCombination (antibiotic) (PA 101243; [3]): 8 µg/mL
- FICI (PA 101243; antibiotic + compound 2): <0.26
- MICAntibiotic (PA 101243; antibiotic alone): 32 µg/mL
- FICAntibiotic (PA 101243; with compound 2): 0.250
- MIC of antibiotic + Compound 2 in PAO200 (PAO200; + compound 2 ≤8.7 μM, PAO200): 0.016 µg/mL
- MIC of antibiotic alone in PAO200 (PAO200; antibiotic alone, PAO200 efflux-deficient): 0.25 µg/mL
- MIC of antibiotic + Compound 2 in PAO750 (PAO750; + compound 2 ≤8.7 μM, PAO750): 0.031 µg/mL
- MIC of antibiotic alone in PAO750 (PAO750; antibiotic alone, PAO750 efflux-deficient): 0.5 µg/mL
- interaction with compound 2 in time-kill (MDR PA101885; 24 h): synergistic
- time-kill effect, antibiotic + compound 2 (MDR PA101885; CLSI breakpoint concentration + 4.4 μM or 8.7 μM compound 2, after about 6 h): strongly bactericidal
- time-kill effect, antibiotic alone (MDR PA101885; at CLSI breakpoint concentration (aztreonam 8 μg/mL, meropenem 2 μg/mL)): bacteriostatic effect
- interaction with compound 2 in time-kill ([2]; 24 h): synergistic
- time-kill effect, antibiotic alone ([2]; at MIC (aztreonam 4 μg/mL, meropenem 1 μg/mL)): time-dependent bactericidal effect
